Counter-ions that a name gives are not always drawn.
Target: T1, 5-HT1A receptor (Homo sapiens, UniProt P08908)
T1 construct: expressed in transfected cells; host or cells: HEK293 (membranes)
T1 sequence (P08908 1-422): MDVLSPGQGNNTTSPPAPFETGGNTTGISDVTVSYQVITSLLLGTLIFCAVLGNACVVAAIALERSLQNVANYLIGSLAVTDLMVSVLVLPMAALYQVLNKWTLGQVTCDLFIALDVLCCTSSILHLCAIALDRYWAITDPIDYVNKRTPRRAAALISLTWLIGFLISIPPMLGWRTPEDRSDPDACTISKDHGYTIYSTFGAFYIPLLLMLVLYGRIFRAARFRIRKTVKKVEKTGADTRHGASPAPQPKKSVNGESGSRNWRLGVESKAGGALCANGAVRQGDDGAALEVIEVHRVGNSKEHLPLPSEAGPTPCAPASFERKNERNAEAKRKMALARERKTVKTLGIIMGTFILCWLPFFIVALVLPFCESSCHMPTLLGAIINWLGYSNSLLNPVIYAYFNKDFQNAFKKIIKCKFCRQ
Experiment: GTPγS binding functional potency assay (primary screen), 5-HT1A
Assay type: biochemical
Settings: assay a), membranes of HEK293 cells transfected with human 5-HT1A, read-out: fpKi at the 5-HT1A receptor
Protocol: a) Functional Potency—Primary Screen
The functional potency may be determined by the following GTPγS binding protocol. Cells used in the study are CHO Cells and Human Embryo Kidney (HEK293). Cells were transfected with DNA coding for human receptors as follows: HEK293—5-HT1A; CHO—5-HT1B; and CH—5-HT1D. Test compounds were initially dissolved in 100% dimethyl sulfoxide to a concentration of 10 mM. Serial dilution of the test compounds in 100% dimethyl sulphoxide was carried out using a Biomek FX in 384 well assay plates, so that the final top concentration of test compound is 3 μM in the assay. Add the test compound at 1.0% total assay volume (TAV) to a solid, white, 384 well assay plate (Costar). Add 50% TAV of precoupled (for 90 mins @ RT) membranes (5 ug/well), Wheatgerm Agglutinin Polystyrene Scintillation Proximity Assay beads (RPNQ0260 Amersham International) (0.25 mg/well) in 20 mM HEPES pH 7.4, 100 mM NaCl, 3 mM MgCl2 and 10 μM GDP. The third addition was a 20% TAV addition of either buffer, agonist format, or EC80 final assay concentration (FAC) of agonist, 5HT antagonist format, prepared in assay buffer. The assay was started by the addition of 29% TAV of GTPγS 0.38 nM FAC. After all additions assay plates were incubated at RT for 2-3 hours. Assay plates were counted on a Viewlux, 613/55 filter for 5 mins. Assay plates were read between 2-6 hours after the final addition.

Row | Structure (SMILES) | Ki [nM]
1 | CNC(=O)c1ncn2c1CCc1c(CCN3CCC(c4cccc5nc(C)ccc45)CC3)cccc1-2 [Example 83, N-methyl-6-{2-[4-(2-methyl-5-quinolinyl)-1-piperidinyl]ethyl}-4,5-dihydroimidazo[1,5-a]quinoline-3-carboxamide dihydrochloride] | < 10
2 | CNC(=O)c1ncn2c1ccc1c(CCN3CCC(c4cccc5nc(C)ccc45)CC3)cccc12 [Example 89, N-methyl-6-{2-[4-(2-methyl-5-quinolinyl)-1-piperidinyl]ethyl}imidazo[1,5-a]quinoline-3-carboxamide dihydrochloride] | < 10
3 | Cc1ccc2c(C3CCN(CCc4cccc5c4ccc4c(C(N)=O)ncn45)CC3)cccc2n1 [Example 91, 6-{2-[4-(2-methyl-5-quinolinyl)-1-piperidinyl]ethyl}imidazo[1,5-a]quinoline-3-carboxamide dihydrochloride] | < 10
4 | Cc1ccc2c(N3CCN(CCc4cccc5c4ccc4nnnn45)[C@H](C)C3)cccc2n1 [Example 94, 6-{2-[(2R)-2-methyl-4-(2-methyl-5-quinolinyl)-1-piperazinyl]ethyl}tetrazolo[1,5-a]quinoline dihydrochloride] | < 10
5 | CCOC(=O)c1nnn2c1ccc1c(CCN3CCN(c4cccc5nc(C)ccc45)CC3)cccc12 [Example 97, ethyl 6-{2-[4-(2-methyl-5-quinolinyl)-1-piperazinyl]ethyl}[1,2,3]triazolo[1,5-a]quinoline-3-carboxylate dihydrochloride] | < 10
6 | Cc1ccc2c(N3CCN(CCc4cccc5c4ccc4c(-c6nc(C)no6)ncn45)[C@H](C)C3)cccc2n1 [Example 105, 6-{2-[(2R)-2-methyl-4-(2-methyl-5-quinolinyl)-1-piperazinyl]ethyl}-3-(3-methyl-1,2,4-oxadiazol-5-yl)imidazo[1,5-a]quinoline dihydrochloride] | < 10
7 | Cc1ccc2c(C3CCN(CCc4cccc5c4CCc4c(C(N)=O)ncn4-5)CC3)cccc2n1 [Example 122, 6-{2-[4-(2-methyl-5-quinolinyl)-1-piperidinyl]ethyl}-4,5-dihydroimidazo[1,5-a]quinoline-3-carboxamide dihydrochloride] | < 10
8 | CNC(=O)c1ncn2c1COc1c-2ccc(C)c1CCN1CCC(c2cccc3nc(C)ccc23)CC1 [Example 124, N,7-dimethyl-6-{2-[4-(2-methyl-5-quinolinyl)-1-piperidinyl]ethyl}-4H-imidazo[5,1-c][1,4]benzoxazine-3-carboxamide dihydrochloride] | < 10
9 | Cc1ccc2c(C3CCN(CCc4c(C)ccc5c4OCc4c(C(N)=O)ncn4-5)CC3)cccc2n1 [Example 125, 7-methyl-6-{2-[4-(2-methyl-5-quinolinyl)-1-piperidinyl]ethyl}-4H-imidazo[5,1-c][1,4]benzoxazine-3-carboxamide dihydrochloride] | < 10

Source: patent publication US20120022056A1, “FUSED TRICYCLIC DERIVATIVES FOR THE TREATMENT OF PSYCHOTIC DISORDERS” (priority 2005, published 2012)
